Data taken from patent US11230526B1, “Cylcoalkenyl derivatives useful as agonists of the GPR120 and/or GPR40 receptors” (Janssen Pharmaceutica NV, priority 2018, dated 2022).

Experiments:
Human GPR120 short form = target: T1, Human GPR120 short form (Homo sapiens, UniProt Q5NUL3); test: Human GPR120 calcium flux assay, Procedure Calcium B (4200 cells/well); format: cell-based
T1 construct: expressed in transfected cells
T1 sequence (Q5NUL3 1-361): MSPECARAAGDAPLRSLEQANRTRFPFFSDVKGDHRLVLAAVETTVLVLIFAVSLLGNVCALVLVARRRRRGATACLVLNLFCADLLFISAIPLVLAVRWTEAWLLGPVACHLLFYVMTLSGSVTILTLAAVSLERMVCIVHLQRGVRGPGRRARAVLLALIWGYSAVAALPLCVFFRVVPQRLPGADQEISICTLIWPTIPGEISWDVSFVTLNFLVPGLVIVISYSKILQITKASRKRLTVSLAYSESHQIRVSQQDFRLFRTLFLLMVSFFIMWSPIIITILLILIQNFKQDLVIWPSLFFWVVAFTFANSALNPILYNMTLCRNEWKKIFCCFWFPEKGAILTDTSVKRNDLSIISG
Procedure, shortened: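 Agonist EC50 came from a four-parameter fit of RFU (Fmax−Fmin) read over 300 s on FLIPR. Cells were HEK293 stably transfected with human GPR120 (NM_001195755.1) at 4200 per well, serum-starved 1 h and loaded with Fluo-4 NW dye with probenecid before ligand addition.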

human GPR40 = target: T2, human GPR40 (Homo sapiens, UniProt O14842); test: GPR40 calcium flux assay, human GPR40; format: cell-based; conditions: HEK293 cells stably expressing GPR40; table does not say human or rat
T2 construct: expressed in transfected cells
T2 sequence (O14842 whole entry): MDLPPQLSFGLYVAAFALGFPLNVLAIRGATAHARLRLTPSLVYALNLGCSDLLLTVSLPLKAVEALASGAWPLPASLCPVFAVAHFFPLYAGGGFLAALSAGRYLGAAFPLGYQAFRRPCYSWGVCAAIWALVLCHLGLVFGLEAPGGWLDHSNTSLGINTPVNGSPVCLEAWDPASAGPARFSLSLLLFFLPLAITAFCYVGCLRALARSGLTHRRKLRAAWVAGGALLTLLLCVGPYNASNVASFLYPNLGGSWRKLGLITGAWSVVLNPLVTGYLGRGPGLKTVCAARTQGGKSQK
Procedure, shortened: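 Cells preincubated 1 h at 37° C. in HBSS, 20 mM HEPES, 0.1% BSA, then Fluo 8 calcium dye 30 min at 37° C. and 15 min at room temperature.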

SMILES | EC50 (Human GPR120 short form) | EC50 (human GPR40)
Cc1ccc(C2=C(COc3cc(C)c(CCC(=O)O)cc3F)CCC2)c(F)c1 [Compound 270, 3-[5-fluoro-4-[[2-(2-fluoro-4-methyl-phenyl)cyclopenten-1-yl]methoxy]-2-methyl-phenyl]Propanoic Acid] | 0.189 µM | 1.5 µM
O=C(O)CCc1ccc(OCC2=C(C3CCCC3)CCC2)cc1Br [Compound 421, 3-[2-bromo-4-[(2-cyclopentylcyclopenten-1-yl)methoxy]phenyl]Propanoic Acid] | 0.222 µM | 0.025 µM
O=C(O)CCc1ccc(OCC2=C(C3CCC(F)(F)CC3)CCC2)cc1 [Compound 412, 3-[4-[[2-(4,4-difluorocyclohexyl)cyclopenten-1-yl]methoxy]phenyl]Propanoic Acid] | 4.65 µM | 0.513 µM
O=C(O)CCc1ccc(OCC2=C(C3CCOCC3)CCC2)cc1C(F)(F)F [Compound 415, 3-[4-[(2-tetrahydropyran-4-ylcyclopenten-1-yl)methoxy]-2-(trifluoromethyl)phenyl]Propanoic Acid] | > 5 µM | 0.132 µM
Cc1ccccc1C1=C(COc2ccc(CCC(=O)O)c(C(F)(F)F)c2)CCC1 [Compound 257, 3-[4-[[2-(o-tolyl)cyclopenten-1-yl]methoxy]-2-(trifluoromethyl)phenyl]Propanoic Acid] | 2.64 µM | 0.337 µM
O=C(O)CCc1ccc(OCC2=C(c3ccc(Br)cc3)CCC2)cc1C(F)(F)F [Compound 269, 3-[4-[[2-(4-bromophenyl)cyclopenten-1-yl]methoxy]-2-(trifluoromethyl)phenyl]Propanoic Acid] | 2.24 µM | 0.604 µM
O=C(O)CCc1ccc(OCC2=C(C3CCCC3)CCC2)cc1C(F)(F)F [Compound 398, 3-[4-[(2-cyclopentylcyclopenten-1-yl)methoxy]-2-(trifluoromethyl)phenyl]Propanoic Acid] | 0.556 µM | 0.008 µM
O=C(O)CCc1ccc(OCC2=C(Cc3ccccc3)CC(F)(F)C2)cc1Cl [Compound 364, 3-[4-[(2-benzyl-4,4-difluoro-cyclopenten-1-yl)methoxy]-2-chloro-phenyl]Propanoic Acid] | 0.891 µM | 0.049 µM
O=C(O)CCc1ccc(OCC2=C(Cc3cncs3)CCCC2)cc1C(F)(F)F [Compound 596, 3-[4-[[2-(thiazol-5-ylmethyl)cyclohexen-1-yl]methoxy]-2-(trifluoromethyl)phenyl]Propanoic Acid] | 2.37 µM | 0.324 µM
O=C(O)CCc1ccc(OCC2=C(C3CCCC3)CCC(F)(F)C2)cc1Cl [Compound 607, 3-[2-chloro-4-[(2-cyclopentyl-5,5-difluoro-cyclohexen-1-yl)methoxy]phenyl]Propanoic Acid] | 0.148 µM | 0.325 µM
O=C(O)CCc1ccc(OCC2=C(c3ccc(Cl)cc3)CC(F)(F)C2)cc1C(F)(F)F [Compound 248, 3-[4-[[2-(4-chlorophenyl)-4,4-difluoro-cyclopenten-1-yl]methoxy]-2-(trifluoromethyl)phenyl]Propanoic Acid] | 0.361 µM | 0.188 µM
Cc1ccc(C2=C(COc3cc(C)c(CCC(=O)O)cc3F)CCC2)c(C)c1 [Compound 244, 3-[4-[[2-(2,4-dimethylphenyl)cyclopenten-1-yl]methoxy]-5-fluoro-2-methyl-phenyl]Propanoic Acid] | 2.24 µM | 0.799 µM
O=C(O)CCc1ccc(OCC2=C(c3ccc(Cl)cc3F)CCC2)cc1Cl [Compound 275] | 0.307 µM | 0.286 µM
O=C(O)CCc1ccc(OCC2=C(C3C=CCC3)CCC2)cc1C(F)(F)F (stereo not drawn) [Compound 453, 3-[4-[(2-cyclopent-2-en-1-ylcyclopenten-1-yl)methoxy]-2-(trifluoromethyl)phenyl]Propanoic Acid] | 0.181 µM | 0.01 µM
Cc1c(CCC(=O)O)ccc(OCC2=C(c3ccc(Cl)cc3)CC(C(C)C)CC2)c1C (stereo not drawn) [Compound 500, 3-[4-[[2-(4-chlorophenyl)-4-isopropyl-cyclohexen-1-yl]methoxy]-2,3-dimethyl-phenyl]Propanoic Acid] | 1.53 µM | > 5 µM
CCc1cc(OCC2=C(C3CCCC3)CCC2)ccc1CCC(=O)O [Compound 423, 3-[4-[(2-cyclopentylcyclopenten-1-yl)methoxy]-2-ethyl-phenyl]Propanoic Acid] | 0.272 µM | 0.061 µM
O=C(O)CCc1ccc(OCC2=C(C3CCC(F)(F)CC3)CCC2)cc1C(F)(F)F [Compound 416, 3-[4-[[2-(4,4-difluorocyclohexyl)cyclopenten-1-yl]methoxy]-2-(trifluoromethyl)phenyl]Propanoic Acid] | > 5 µM | 0.094 µM

SMILES | EC50 (Human GPR120 short form) | EC50 (human GPR40)
O=C(O)CCc1ccc(OCC2=C(C3CCCCC3)CCCC2)cc1Cl [Compound 602, 3-[2-chloro-4-[(2-cyclohexylcyclohexen-1-yl)methoxy]phenyl]Propanoic Acid] | 2.41 µM | 1.06 µM
COc1ccc(C2=C(COc3ccc(CCC(=O)O)c(C(F)(F)F)c3)CCC2)c(C)c1 [Compound 287, 3-[4-[[2-(4-methoxy-2-methyl-phenyl)cyclopenten-1-yl]methoxy]-2-(trifluoromethyl)phenyl]Propanoic Acid] | > 5 µM | 0.153 µM
Cc1ccc(CC2=C(COc3ccc(CCC(=O)O)cc3)CCC2)cc1 [Compound 346, 3-[4-[[2-(p-tolylmethyl)cyclopenten-1-yl]methoxy]phenyl]Propanoic Acid] | 1.3 µM | 0.228 µM
Cc1c(CCC(=O)O)ccc(OCC2=C(c3ccc(Cl)cc3)CCC(F)(F)CC2)c1C [Compound 616, 3-[4-[[2-(4-chlorophenyl)-5,5-difluoro-cyclohepten-1-yl]methoxy]-2,3-dimethyl-phenyl]Propanoic Acid] | 0.166 µM | 3.55 µM
Cc1cc(OCC2=C(C3CCC(F)(F)CC3)CCC2)c(F)cc1CCC(=O)O [Compound 417, 3-[4-[[2-(4,4-difluorocyclohexyl)cyclopenten-1-yl]methoxy]-5-fluoro-2-methyl-phenyl]Propanoic Acid] | > 5 µM | 1.01 µM
O=C(O)CCc1ccc(OCC2=C(C3CCC3)CCCC2)cc1C(F)(F)F [Compound 599, 3-[4-[(2-cyclobutylcyclohexen-1-yl)methoxy]-2-(trifluoromethyl)phenyl]Propanoic Acid] | 1.35 µM | 0.098 µM
CCC(C)C1=C(COc2ccc(CCC(=O)O)c(C(F)(F)F)c2)CCC1 (stereo not drawn) [Compound 388, 3-[4-[(2-sec-butylcyclopenten-1-yl)methoxy]-2-(trifluoromethyl)phenyl]Propanoic Acid] | 1.63 µM | 0.086 µM
Cc1cc(CCC(=O)O)cc(F)c1OCC1=C(c2ccc(F)cc2)CCC1 [Compound 227, 3-[3-fluoro-4-[[2-(4-fluorophenyl)cyclopenten-1-yl]methoxy]-5-methyl-phenyl]Propanoic Acid] | 0.356 µM | > 5 µM
O=C(O)CCc1ccc(OCC2=C(C3CCOCC3)CCC2)cc1Cl [Compound 418, 3-[2-chloro-4-[(2-tetrahydropyran-4-ylcyclopenten-1-yl)methoxy]phenyl]Propanoic Acid] | > 5 µM | 0.171 µM
O=C(O)CCc1c(F)cc(OCC2=C(C3CCCC3)CCC2)cc1C(F)(F)F [Compound 439, 3-[4-[(2-cyclopentylcyclopenten-1-yl)methoxy]-2-fluoro-6-(trifluoromethyl)phenyl]Propanoic Acid] | > 5 µM | > 10 µM
Cc1cc(OCC2=C(c3ccccc3)CCC2)c(F)cc1CCC(=O)O [Compound 277, 3-[5-fluoro-2-methyl-4-[(2-phenylcyclopenten-1-yl)methoxy]phenyl]Propanoic Acid] | 0.799 µM | 2.68 µM
O=C(O)CCc1ccc(OCC2=C(Cc3cccc(F)c3)CCC2)cc1Cl [Compound 362, 3-[2-chloro-4-[[2-[(3-fluorophenyl)methyl]cyclopenten-1-yl]methoxy]phenyl]Propanoic Acid] | > 5 µM | 0.159 µM
Cc1cc(OCC2=C(c3ccc(OC(F)(F)F)cc3)CCC2)c(F)cc1CCC(=O)O [Compound 325, 3-[5-fluoro-2-methyl-4-[[2-[4-(trifluoromethoxy)phenyl]cyclopenten-1-yl]methoxy]phenyl]Propanoic Acid] | > 5 µM | 2.77 µM
COc1ccc(C2=C(COc3ccc(CCC(=O)O)cc3C)CCC2)cn1 [Compound 218, 3-[4-[[2-(6-methoxy-3-pyridyl)cyclopenten-1-yl]methoxy]-3-methyl-phenyl]Propanoic Acid] | 0.089 µM | > 5 µM
CC1CCC(c2ccc(Cl)cc2)=C1COc1ccc(CCC(=O)O)c(Cl)c1 (stereo not drawn) [Compound 337, 3-[2-chloro-4-[[2-(4-chlorophenyl)-5-methyl-cyclopenten-1-yl]methoxy]phenyl]Propanoic Acid] | 0.336 µM | 0.519 µM
Cc1ccc(C2=C(COc3ccc(CCC(=O)O)c(C(F)(F)F)c3)CCC2)c(C(C)C)c1 [Compound 331, 3-[4-[[2-(2-isopropyl-4-methyl-phenyl)cyclopenten-1-yl]methoxy]-2-(trifluoromethyl)phenyl]Propanoic Acid] | > 5 µM | 3.34 µM
